In PMC10643470, “Knockout or inhibition of USP30 protects dopaminergic neurons in a Parkinson’s disease mouse model” (Nature Communications, 2023):
pEC50, pIC50: −log10 of the molar value. Several values for one entry are separate records, joined by “and”; a condition that tells them apart may be missing. Identical values can stand only once. Like-named read-outs stand apart in the source and are kept apart here.

Key:
YOD1 = YOD1 (Homo sapiens, UniProt Q5VVQ6); assay: DUB/cathepsin selectivity biochemical assay
USP14 = USP14 (Homo sapiens, UniProt P54578); assay: DUB/cathepsin selectivity biochemical assay
[1] = test system: AAV-A53T-SNCA PD mouse model; assay: TH+ neuron counting in SNpc, AAV-A53T-SNCA mouse model (compound study); type: in vivo
Description: (§1) For the compound study, the fixed, cryoprotected and frozen midbrain samples were sectioned as coronal sections at 100 µm intervals through SNpc and ventral tegmental area (VTA) and mounted on glass slides. Sectioning was started at −2.6 mm from bregma and continued to −3.7 mm from bregma in the AP axis (coordinates based on Franklin & Paxinos: The Mouse Brain in Stereotaxic Coordinates). For the immunostaining, the sections were stained with anti-TH following permeabilization. The stained sections were scanned with the Olympus VS120 slide scanner and analyzed with a VIS-Visiopharm Integrator System (Visiopharm, Denmark) by a blinded data analyst. All cells of interest with visible nuclei were labeled manually and counted using an APP (Analysis Protocol Package), scaled by section thickness and sectioning interval to estimate the total cell population in the SNpc. For immunostaining of Ser129 αSyn phosphorylation, TSA amplification was used with primary antibody ab51253 (Abcam). Blinded analysis was used, and positive cells per area were determined. For dual IF IHC of Iba1 (WAKO) and GFAP (ab4674 – Abcam), the stained sections were scanned and analyzed by a blinded data analyst. Analysis determines the percentage of positive staining area [%area = (stained area/region area) * (100)]. To calculate % of stained area, the same threshold value was applied to all sections with the same antibody staining. All pixels above the threshold value were considered positive. All striatal densitometry and neuronal counting data for both KO and inhibitor studies were obtained by an investigator blinded to genotype and treatment.

USP12/UAF1 = USP12/UAF1 (Homo sapiens, UniProt O75317); assay: DUB/cathepsin selectivity biochemical assay
OTUB1/UBCH5B = OTUB1/UBCH5B (Homo sapiens, UniProt Q96FW1); assay: DUB/cathepsin selectivity biochemical assay
USP13 = USP13 (Homo sapiens, UniProt Q92995); assay: DUB/cathepsin selectivity biochemical assay
USP7 = USP7 (Homo sapiens, UniProt Q93009); assay: DUB/cathepsin selectivity biochemical assay
USP10 = USP10 (Homo sapiens, UniProt Q14694); assay: DUB/cathepsin selectivity biochemical assay
[2] = test system: AAV-A53T-SNCA PD mouse model; assay: Iba1/GFAP immunostaining in SNpc, AAV-A53T-SNCA mouse model (compound study); type: in vivo; parameters: key to Figure S7a immunostaining, Left / Figure S7a immunostaining, Right: % stained area = stained area / region area × 100
Description: as §1

USP15 = USP15 (Homo sapiens, UniProt Q9Y4E8); assay: DUB/cathepsin selectivity biochemical assay
[3] = test system: TOM20-ubiquitylation in control (AHN) iPSC-derived dopaminergic neurons; assay: TOM20-ubiquitylation in control iPSC-derived dopaminergic neurons; type: cell-based, human; settings: no exogenous stimuli
Description: Donor-derived DopaNeuron lines were generated from source material provided by the Parkinson’s Progression Markers Initiative (PPMI) through The Michael J. Fox Foundation. Human iPS cells-derived DopaNeurons were purchased from Fujifilm/Cellular Dynamics. Apparently healthy normal (AHN) (catalog # R1088) or alpha-synuclein A53T mutated (A53T) (catalog # R1109) iPSC-derived dopaminergic neurons (dopaneurons) were thawed from liquid nitrogen. 400 000 viable (counted using a cell counter) dopaneurons […] were plated per well into 24 well plates on day 0 in complete maintenance medium (CMM).
A half-medium change was performed on the cells on Day 3 with CMM. On Day 5 cells were half-medium changed with complete brainphys medium. […] Cells were given half medium changes with or without compounds (depending on whether treatments with compound had started) every 2-3 days.

[4] = test system: TOM20 ubiquitylation in HeLa cells overexpressing PARKIN; assay: Cell TOM20 ubiquitination assay (HeLa YFP-Parkin + A/O); type: cell-based, human; settings: for pEC50: Homo sapiens, 1.5 h
Method: Hela cells overexpressing YFP-Parkin were treated with 1 µM Antimycin A and 1 µM Oligomycin A (AA/OA) and test compound or DMSO for 90 mins. Following treatment, media was removed, and cells were washed in DPBS and then lysed in NP40 lysis buffer on ice. […] The bands corresponding to all forms of ubiquitylated TOM20 were quantified and normalized to the same bands for AA/OA treated cells.

USP21 CD = target: T1, USP21 CD (Homo sapiens, UniProt Q9UK80); assay: DUB/cathepsin selectivity biochemical assay
T1 construct: USP21 CD

USP32 = USP32 (Homo sapiens, UniProt Q8NFA0); assay: DUB/cathepsin selectivity biochemical assay
Sequence of USP32 (Q8NFA0 whole entry, species assumed): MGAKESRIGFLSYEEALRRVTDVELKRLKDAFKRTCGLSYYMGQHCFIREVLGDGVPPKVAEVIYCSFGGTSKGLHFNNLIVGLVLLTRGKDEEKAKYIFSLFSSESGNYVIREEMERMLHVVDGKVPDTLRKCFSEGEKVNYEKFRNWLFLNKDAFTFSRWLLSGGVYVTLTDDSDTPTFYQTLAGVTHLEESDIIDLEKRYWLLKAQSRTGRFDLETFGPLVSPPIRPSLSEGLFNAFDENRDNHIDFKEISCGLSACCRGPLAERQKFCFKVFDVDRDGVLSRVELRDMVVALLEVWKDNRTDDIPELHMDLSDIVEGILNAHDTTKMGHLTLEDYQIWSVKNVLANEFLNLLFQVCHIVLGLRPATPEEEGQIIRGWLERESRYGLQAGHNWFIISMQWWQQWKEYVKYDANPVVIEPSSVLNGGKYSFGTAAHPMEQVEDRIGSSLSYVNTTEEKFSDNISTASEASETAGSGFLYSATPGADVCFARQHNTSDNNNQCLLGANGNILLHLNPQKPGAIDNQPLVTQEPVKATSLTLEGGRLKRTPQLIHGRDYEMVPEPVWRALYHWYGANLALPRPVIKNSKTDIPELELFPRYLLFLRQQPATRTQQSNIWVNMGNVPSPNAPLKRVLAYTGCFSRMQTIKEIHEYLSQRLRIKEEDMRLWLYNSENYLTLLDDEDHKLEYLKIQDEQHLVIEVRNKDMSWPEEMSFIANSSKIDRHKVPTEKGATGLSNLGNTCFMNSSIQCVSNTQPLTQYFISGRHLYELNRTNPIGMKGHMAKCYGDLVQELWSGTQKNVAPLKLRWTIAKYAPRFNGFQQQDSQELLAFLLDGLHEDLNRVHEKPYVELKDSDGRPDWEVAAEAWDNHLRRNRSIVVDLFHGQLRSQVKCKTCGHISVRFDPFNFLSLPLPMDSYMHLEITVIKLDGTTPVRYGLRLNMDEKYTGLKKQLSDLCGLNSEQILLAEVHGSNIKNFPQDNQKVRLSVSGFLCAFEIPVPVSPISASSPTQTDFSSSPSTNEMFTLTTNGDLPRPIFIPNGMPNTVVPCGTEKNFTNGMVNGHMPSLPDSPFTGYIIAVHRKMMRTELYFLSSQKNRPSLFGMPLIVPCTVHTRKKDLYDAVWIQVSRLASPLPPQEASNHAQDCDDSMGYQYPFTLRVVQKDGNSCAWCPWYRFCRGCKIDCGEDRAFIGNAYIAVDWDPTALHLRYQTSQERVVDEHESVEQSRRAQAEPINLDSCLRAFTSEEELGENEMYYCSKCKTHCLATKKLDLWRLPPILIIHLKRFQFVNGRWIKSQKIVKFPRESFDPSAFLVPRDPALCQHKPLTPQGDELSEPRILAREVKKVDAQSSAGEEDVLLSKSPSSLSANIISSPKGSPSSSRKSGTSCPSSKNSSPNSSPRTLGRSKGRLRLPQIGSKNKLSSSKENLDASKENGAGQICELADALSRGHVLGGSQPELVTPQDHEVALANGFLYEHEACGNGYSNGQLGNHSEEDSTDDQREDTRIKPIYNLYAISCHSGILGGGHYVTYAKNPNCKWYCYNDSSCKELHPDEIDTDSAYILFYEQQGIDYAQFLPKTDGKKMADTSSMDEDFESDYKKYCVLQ

Sequence of USP12/UAF1 (O75317 whole entry, species assumed): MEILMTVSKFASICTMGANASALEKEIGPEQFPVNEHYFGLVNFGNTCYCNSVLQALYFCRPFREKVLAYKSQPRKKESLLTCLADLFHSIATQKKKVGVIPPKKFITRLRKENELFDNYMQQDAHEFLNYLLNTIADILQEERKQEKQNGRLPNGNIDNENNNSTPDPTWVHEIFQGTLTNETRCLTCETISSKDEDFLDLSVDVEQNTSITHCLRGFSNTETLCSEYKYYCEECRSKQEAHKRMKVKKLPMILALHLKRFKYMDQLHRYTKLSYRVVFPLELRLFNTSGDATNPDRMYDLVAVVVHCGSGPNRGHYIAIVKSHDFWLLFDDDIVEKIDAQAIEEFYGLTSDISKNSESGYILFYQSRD
Sequence of USP12/UAF1 (Q8TAF3 whole entry partner, species assumed): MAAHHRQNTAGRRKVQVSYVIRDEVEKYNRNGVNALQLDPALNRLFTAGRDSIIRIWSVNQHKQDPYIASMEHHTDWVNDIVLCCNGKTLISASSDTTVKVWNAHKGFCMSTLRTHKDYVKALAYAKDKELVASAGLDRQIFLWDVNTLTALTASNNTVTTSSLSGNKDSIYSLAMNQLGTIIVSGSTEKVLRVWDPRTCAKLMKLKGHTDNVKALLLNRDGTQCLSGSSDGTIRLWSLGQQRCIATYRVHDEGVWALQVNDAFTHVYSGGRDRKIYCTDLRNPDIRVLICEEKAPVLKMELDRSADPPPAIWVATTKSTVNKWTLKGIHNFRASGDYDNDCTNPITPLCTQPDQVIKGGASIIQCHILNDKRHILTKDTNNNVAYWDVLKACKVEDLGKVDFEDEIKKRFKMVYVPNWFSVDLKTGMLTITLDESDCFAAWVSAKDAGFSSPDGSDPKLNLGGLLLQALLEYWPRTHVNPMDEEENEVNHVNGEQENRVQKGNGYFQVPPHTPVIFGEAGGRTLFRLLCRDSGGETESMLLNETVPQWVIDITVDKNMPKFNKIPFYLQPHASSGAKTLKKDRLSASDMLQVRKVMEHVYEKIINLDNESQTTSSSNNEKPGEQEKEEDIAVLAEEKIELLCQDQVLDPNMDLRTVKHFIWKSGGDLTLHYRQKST
T1 sequence (Q9UK80 212-558 limits assumed): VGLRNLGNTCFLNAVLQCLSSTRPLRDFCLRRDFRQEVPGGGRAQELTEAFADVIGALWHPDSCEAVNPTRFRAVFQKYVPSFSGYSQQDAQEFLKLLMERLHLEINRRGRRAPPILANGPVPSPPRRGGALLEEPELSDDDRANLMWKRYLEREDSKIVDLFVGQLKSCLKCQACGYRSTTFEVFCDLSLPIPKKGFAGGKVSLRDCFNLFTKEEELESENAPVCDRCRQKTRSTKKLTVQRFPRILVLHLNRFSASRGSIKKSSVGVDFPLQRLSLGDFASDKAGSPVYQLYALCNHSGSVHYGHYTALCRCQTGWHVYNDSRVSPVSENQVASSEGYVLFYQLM
Sequence of USP15 (Q9Y4E8 whole entry, species assumed): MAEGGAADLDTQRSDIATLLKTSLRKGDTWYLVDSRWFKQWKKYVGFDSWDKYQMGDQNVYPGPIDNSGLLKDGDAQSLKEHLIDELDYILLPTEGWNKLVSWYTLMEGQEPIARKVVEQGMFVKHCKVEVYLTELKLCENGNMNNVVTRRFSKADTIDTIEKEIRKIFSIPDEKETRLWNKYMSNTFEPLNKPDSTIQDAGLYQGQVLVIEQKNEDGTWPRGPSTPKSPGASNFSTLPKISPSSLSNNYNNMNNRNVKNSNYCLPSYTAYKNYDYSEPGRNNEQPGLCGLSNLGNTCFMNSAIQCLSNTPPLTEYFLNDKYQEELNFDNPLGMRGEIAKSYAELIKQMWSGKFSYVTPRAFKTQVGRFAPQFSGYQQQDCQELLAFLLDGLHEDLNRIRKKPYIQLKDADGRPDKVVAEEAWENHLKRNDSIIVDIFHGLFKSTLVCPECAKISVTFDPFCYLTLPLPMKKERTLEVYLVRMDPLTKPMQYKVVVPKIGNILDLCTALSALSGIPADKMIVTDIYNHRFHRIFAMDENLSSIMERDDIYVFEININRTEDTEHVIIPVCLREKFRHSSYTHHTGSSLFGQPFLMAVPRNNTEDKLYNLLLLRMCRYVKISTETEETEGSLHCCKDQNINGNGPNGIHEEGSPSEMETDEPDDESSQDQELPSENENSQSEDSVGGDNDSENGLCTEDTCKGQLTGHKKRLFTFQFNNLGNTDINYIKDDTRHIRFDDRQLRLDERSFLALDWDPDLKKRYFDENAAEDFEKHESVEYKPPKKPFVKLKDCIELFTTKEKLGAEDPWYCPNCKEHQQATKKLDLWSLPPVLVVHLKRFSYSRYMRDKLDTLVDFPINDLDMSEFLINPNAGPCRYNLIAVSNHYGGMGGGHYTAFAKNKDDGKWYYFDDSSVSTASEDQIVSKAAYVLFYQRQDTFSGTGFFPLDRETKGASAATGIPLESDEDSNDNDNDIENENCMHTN
Sequence of USP10 (Q14694 whole entry): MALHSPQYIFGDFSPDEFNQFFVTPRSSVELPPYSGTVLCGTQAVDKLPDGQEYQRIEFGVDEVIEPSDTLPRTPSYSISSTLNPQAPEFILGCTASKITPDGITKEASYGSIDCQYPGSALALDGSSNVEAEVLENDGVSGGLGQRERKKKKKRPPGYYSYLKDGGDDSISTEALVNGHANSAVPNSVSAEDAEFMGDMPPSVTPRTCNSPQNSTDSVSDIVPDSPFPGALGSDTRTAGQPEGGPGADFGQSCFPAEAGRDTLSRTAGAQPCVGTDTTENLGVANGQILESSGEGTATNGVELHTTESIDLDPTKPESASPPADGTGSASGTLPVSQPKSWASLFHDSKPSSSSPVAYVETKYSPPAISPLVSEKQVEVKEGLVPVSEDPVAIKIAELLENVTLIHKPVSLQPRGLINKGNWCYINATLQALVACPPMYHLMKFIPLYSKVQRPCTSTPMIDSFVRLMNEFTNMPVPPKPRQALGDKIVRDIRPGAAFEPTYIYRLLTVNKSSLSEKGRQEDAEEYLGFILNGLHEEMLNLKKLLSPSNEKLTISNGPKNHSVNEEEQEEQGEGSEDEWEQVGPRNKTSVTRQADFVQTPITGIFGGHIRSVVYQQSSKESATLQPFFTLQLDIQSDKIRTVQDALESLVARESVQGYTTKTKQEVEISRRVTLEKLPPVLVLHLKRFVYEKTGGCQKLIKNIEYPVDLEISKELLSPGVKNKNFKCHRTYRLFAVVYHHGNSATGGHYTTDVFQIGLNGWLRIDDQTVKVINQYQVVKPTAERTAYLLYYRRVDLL

## C[C@@H]1[C@H]2CCN(C(=O)c3ncc(-c4ccnc(C#N)c4)o3)[C@H]2CN1C#N [MTX115325]
YOD1
  pIC50: < 3.52
USP14
  pIC50: < 3.52
[1]; 50 mg/kg BID oral, 10 weeks, vehicle 61.7%, p 0.029
  Percentage of ipsilateral vs contralateral TH+ neurons: 89.08%
[1]; AAV-A53T-SNCA mice, individual animals
  Percentage of ipsilateral vs contralateral TH+ neurons in SNpc: 43.6893 and 97.2222 and 27.4336 and 125.243 and 125 and 105.063 and 101.25 and 55.1724 and 95.8333 and 93.9394 and 113.861 and 96.0526 and 68.5315 and 98.8095
[1]; lower doses, doses not given, peer review reply
  Beneficial effects at lower doses in a subsequent study: not show beneficial effects
USP12/UAF1
  pIC50: < 3.52
OTUB1/UBCH5B
  pIC50: < 3.52
USP13
  pIC50: < 3.52
USP7
  pIC50: < 3.52
USP10
  pIC50: 3.97
[2]; 50 mg/kg, SNpc
  Total GFAP stained area: significantly decreased
[2]; AAV-A53T + MTX115325 (50 mg/kg), Group 5, Left hemisphere, individual animal values (Animal ID in r3)
  Figure S7b immunostaining quantification, Left: 1.3107 and 1.822 and 1.54 and 1.4872 and 0.5058 and 0.5702 and 1.26 and 0.5434 and 3.27 and 0.3697 and 0.5693 and 0.3721 and 1.3682
[2]; AAV-A53T + MTX115325 (50 mg/kg), Group 5, Right hemisphere, individual animal values (Animal ID in r3)
  Figure S7b immunostaining quantification, Right: 5.052 and 9.289 and 2.625 and 1.026 and 0.413 and 0.7794 and 1.305 and 0.7197 and 2.306 and 0.4784 and 1.89 and 0.7362 and 2.027
[2]; Group 5: AAV-A53T + MTX115325 (50 mg/kg), Left side, individual animals
  Figure S7a immunostaining, Left: 7.176 and 11.087 and 12.7517 and 7.21 and 7.515 and 4.054 and 9.929 and 4.978 and 8.49 and 4.199 and 4.24 and 6.399 and 9.051
[2]; Group 5: AAV-A53T + MTX115325 (50 mg/kg), Right side, individual animals
  Figure S7a immunostaining, Right: 24.0437 and 23.3177 and 16.4732 and 6.609 and 8.915 and 4.627 and 11.7034 and 7.051 and 10.4594 and 5.626 and 7.142 and 6.872 and 11.3579
USP15
  pIC50: < 3.52
[3]; control background, 24 h, 1 µM
  TOM20-ubiquitylation: increased TOM20-ubiquitylation
[3]; control neurons, 7 days at 10 nM, 100 nM or 1 µM
  TOM20-ubiquitylation: caused the upregulation of TOM20-ubiquitylation
[4]; 0.0001 µM
  TOM20 ubiquitylation signal, MTX115325 + AO (Figure 4b): 1.19
[4]; 0.0003 µM
  TOM20 ubiquitylation signal, MTX115325 + AO (Figure 4b): 1.5
[4]; 0.001 µM
  TOM20 ubiquitylation signal, MTX115325 + AO (Figure 4b): 1.43
[4]; 0.003 µM
  TOM20 ubiquitylation signal, MTX115325 + AO (Figure 4b): 1.6
[4]; 0.01 µM
  TOM20 ubiquitylation signal, MTX115325 + AO (Figure 4b): 2.01
[4]; 0.03 µM
  TOM20 ubiquitylation signal, MTX115325 + AO (Figure 4b): 2.55
[4]; 0.1 µM
  TOM20 ubiquitylation signal, MTX115325 + AO (Figure 4b): 3.08
[4]; 0.3 µM
  TOM20 ubiquitylation signal, MTX115325 + AO (Figure 4b): 3.55
[4]; 1 µM
  TOM20 ubiquitylation signal, MTX115325 + AO (Figure 4b): 3.5
[4]; 3 µM
  TOM20 ubiquitylation signal, MTX115325 + AO (Figure 4b): 3.33
[4]; HeLa cells, 90 min, representative concentration-response
  TOM20-Ub 1.5X interpolated value (representative profile, Fig. 4b): 0.0020 µM
[4]; HeLa-PARKIN + A/O, 90 min
  TOM20-Ub EC1.5x: 10 nM
[4]; HeLa cells, 90 min, representative concentration-response, read-out: TOM20-Ub EC50 (representative profile, Fig. 4b)
  pEC50: 7.66
[4]; HeLa-PARKIN + A/O, 90 min, read-out: TOM20-Ub EC50
  pEC50: 7.49
USP21 CD
  pIC50: 4.22
USP32
  pIC50: 3.92
